Experimental data from US6777440B2, “HIV integrase inhibitors” (Bristol-Myers Squibb Company, priority 2001, dated 2004).

Experiments:
[1] = Hydrolysis of prodrugs under physiological conditions (pH 7, 37° C., HPLC); assay type: physicochemical; conditions: 25 mM phosphate buffer pH 7, 37° C.; for Compound 3: parent acid formed from 3-C; for Compound 3-C: remaining prodrug
Protocol: As shown in Scheme VII, compounds of Formula VII-A wherein R^1 and R^2 are as defined for Formula I, are hydrolyzed at pH 7 (37° C.) to yield the corresponding 2-hydroxy acrylic, VII-B, and are thus useful as prodrugs. [drawing 203]
In an experiment to measure the hydrolysis of compounds such as VII-A, compound 3-C was added to 25 mM phosphate buffer (pH 7) at a concentration of 0.03 mg/mL. The reaction was incubated at 37° C. for a period of 24 hours. Interval time points are analyzed by HPLC, identifying both the compound 3-C and compound 3, the parent acid.

HIV-integrase = biological target: T1, HIV-integrase (Human immunodeficiency virus type 1 group M subtype B, UniProt P04585); assay: HIV-integrase inhibition activity (SPA bead strand-transfer assay); assay type: biochemical; conditions: 50 μM compound; recombinant integrase
T1 construct: 0.26 ng of recombinant integrase was incubated with the beads
Protocol: For each reaction, 5 pmole of biotin labled substrate DNA was bound to 100 ug of Streptavidin coated PVT SPA beads (Amersham Pharmacia Biotech). 0.26 ng of recombinant integrase was incubated with the beads for 90 min at 37° C. Unbound enzyme was removed by washing the complex followed by addition of inhibitors and 0.1 fmol of P33 labeled target DNA. Reaction was stopped by adding EDTA to a final concentration of 10 mM. Samples were counted in TopCountNXT (Packard) and the CPM was used as a measure of integration. Reaction condition was as described in A. Engelman and R. Craigie, J. Virol. 69, 5908-5911 (1995). The sequences of substrate and target DNA were described in Nucleic Acid Research 22, 1121-1122 (1994). Compounds of this invention tested in this assay have IC50's of approximately 0.01 to 50 μM

[2] = system: single cycle, recombinant HIV virus expressing Renella luciferase; assay: Inhibition of HIV replication (single cycle recombinant virus, luciferase readout); assay type: cell-based; conditions: Human immunodeficiency virus 1, 120 h, read-out: % Inhibition @ 1.6 uM
Protocol: Cell culture assays were preformed using a single cycle, recombinant HIV virus expressing Renella luciferase. Anti-viral activity was evaluated by measuring the production of luciferase in the infected cells 5 days post-infection. Susceptibility of the virus to compounds was determined by incubation in the presence of the serially-diluted compound. The 50% effective concentration (EC50) was calculated by using the exponential form of the median effect equation where (Fa)=1/[1+(ED50/drug conc.)^m]. Compounds of this invention tested in this assay have EC50's of approximately 0.02 to 50 μM.

Row | Compound | Compound 3 ([1]; time 0 h) | Compound 3 ([1]; time 0.5 h) | Compound 3 ([1]; time 1 h) | Compound 3 ([1]; time 1.5 h) | Compound 3 ([1]; time 2 h) | Compound 3 ([1]; time 4 h) | Compound 3 ([1]; time 6 h) | melting point | inhibition at 50 µM (HIV-integrase) | inhibition at 1.6 µM [2] | Compound 3-C ([1]; 3-C added at 0.03 mg/mL, time 0 h) | Compound 3-C ([1]; time 0.5 h) | Compound 3-C ([1]; time 1 h) | Compound 3-C ([1]; time 1.5 h) | Compound 3-C ([1]; time 2 h) | Compound 3-C ([1]; time 4 h) | Compound 3-C ([1]; time 6 h)
1 | CON(Cc1ccc(F)cc1)C(=O)/C=C(\O)C(=O)O [Compound 3, 3-[(4-Fluoro-benzyl)-methoxy-carbamoyl]-2-hydroxy-acrylic acid] | 0.001 mg/mL | 0.008 mg/mL | 0.012 mg/mL | 0.014 mg/mL | 0.016 mg/mL | 0.021 mg/mL | 0.022 mg/mL | 129 °C (dec.) | 99.9% | 96% |  |  |  |  |  |  | 
2 | CON(Cc1ccc(F)cc1)C(=O)/C=C1\OC(C)(C)OC1=O [Compound 3-C, 2-(2,2-Dimethyl-5-oxo-[1,3]dioxolan-4-ylidene)-N-(4-fluoro-benzyl)-N-methoxy-acetamide] |  |  |  |  |  |  |  |  |  | 96% | 0.026 mg/mL | 0.022 mg/mL | 0.017 mg/mL | 0.013 mg/mL | 0.010 mg/mL | 0.003 mg/mL | 0.001 mg/mL
